Assays:
HS578T cells = assay: Cell viability assay (WST-1), shRNA-transduced cells; format: cell-based, human; details: 4 days after transduction; normalized to control shRNA
Protocol: (§1) For in vitro cell line experiments, concentrated lentiviral supernatant (to achieve an MOI of 3) was mixed with cells at the time of seeding. Cells were monitored by visualization of RFP under fluorescence microscopy. All flow cytometry analyses were performed after at least 72 hours of infection.
(§2) For cell lines treated with chemical or infected with lentivirus, WST-1 Cell Proliferation Reagent (Roche) was added at 1:10 (v/v) final dilution to each well per manufacturer's instructions. Cells were subsequently incubated at 37° C. and 5% CO2. Between 1 and 4 hours after addition of reagent, plates were analyzed on a SpectraMax M3 Bioanalyzer (Molecular Devices). Absorbance for each well was measured at 450 nm (signal wavelength) and 650 nm (reference wavelength). Thus, the signal for each experimental sample was Absorbanceexperimental (A450nm-A650nm). To correct for the effect of media, Absorbancebackground (A450nm-A650nm) was obtained by measuring absorbance in a blank well. Thus, the background corrected signal for each sample Acorrected=Absorbanceexperimental−Absorbancebackground. All Acorrected values for the knockdowns were normalized to the Acorrected value for the control sample to obtain a ‘Relative Viability’.

MDA-MB231 cells = assay: as above; format: cell-based, human; details: 4 days after transduction; normalized to control shRNA
Protocol: as §1, §2

MDA-MB468 cells = assay: as above; format: cell-based, human; details: 4 days after transduction; normalized to control shRNA
Protocol: as §1, §2

[1] = system: human mammary epithelial cells (HMEC); assay: Cell viability assay (WST-1), non-transformed mammary cells; format: cell-based; details: 4 days after transduction; normalized to control shRNA
Protocol: as §1, §2

PDX-T1 tumor cells = assay: Organoid colony formation assay; format: cell-based, human; details: colonies counted 2 weeks after transduction
Protocol: (§3) For in vivo PDX tumor growth and organoid colony formation experiments, concentrated lentiviral supernatant (to achieve an MOI of 10) was mixed with single cell suspensions of PDX tumor cells in organoid media with 4 μg/mL of Polybrene (Sigma-Aldrich). Organoid media consisted of: Advanced DMEM/F12 (Invitrogen), 10% FBS (Hyclone), 2.5% growth factor-reduced Matrigel (BD), 10 ng/mL mouse EGF (R&D), 100 ng/mL Noggin (R&D), 250 ng/mL RSPO-1 (R&D), 1× B27 (Invitrogen), 1× N2 (Invitrogen), and PSA (Life Technologies). Cells were then spinoculated by centrifuging at 15° C. for 2 hours at 1200×g. Cells were resuspended by pipetting and left overnight in 48-well ultra-low attachment cell culture plates (Corning).
For organoid colony formation assays, cells were transferred the next day to matrigel. For in vivo PDX assays, approximately 75% of the cells were injected into NSG mice as described in the PDX tumor engraftment section. […] Dissociated cells were resuspended in flow cytometry buffer and analyzed by flow cytometry to determine the ‘baseline’ RFP percentage for cells that were injected into the mice.
Irradiated L1-Wnt3a feeder cells (generous gift of Dr. Roel Nusse) were mixed with growth factor reduced matrigel (BD Biosciences) and allowed to solidify at 37° C. […] Colonies were counted under fluorescence microscopy. Only RFP positive colonies (which represent transduced cells) were counted. […]

CDK19 = assay: Quantitative PCR RNA expression analysis of CDK19 knockdown; format: cell-based, human; details: normalized to control shRNA and beta-actin
Protocol: Cells were lysed with Trizol (Life Technologies) and RNA was extracted according to the manufacturer's instruction. RNA was then treated with DNAsel to remove contaminating genomic DNA. RNA was reverse transcribed to cDNA using SuperScript III First Strand Synthesis kit (Life Technologies) according to the manufacturer's instructions. TaqMan Gene Expression Master Mix (Applied Biosystems) and the following TaqMan Gene Expression Assays (Applied Biosystems) were used following manufacturer's instructions: ACTB, Hs00357333_g1; CDK19, Hs01039931_m1; CDK8, Hs00993274_m1. Data was collected on a 7900HT Fast Real-Time PCR System (Applied Biosystems) and data analyzed with SDS 2.4 software (Applied Biosystems). Gene expression data in each sample was normalized against the expression of beta-actin.

PDX-T1 [2] = assay: PDX tumor growth in NSG mice, percentage of RFP positive cells by flow cytometry; format: in vivo; details: normalized to control shRNA
Protocol: as §3
(§4) For organoid colony formation assays, cells were transferred the next day to matrigel. For in vivo PDX assays, approximately 75% of the cells were injected into NSG mice as described in the PDX tumor engraftment section. The remainder 25% of cells were plated on matrigel and grown in organoid media for 72 hours until the cells became RFP positive. At that point media was removed and exchanged for dispase and incubated for 2-3 h until the matrigel dissolved. Dissociated cells were resuspended in flow cytometry buffer and analyzed by flow cytometry to determine the ‘baseline’ RFP percentage for cells that were injected into the mice.
(§5) Single cell suspensions of PDX cells were resuspended in 50% (v/v) mixtures of normal matrigel (BD Biosciences) and flow cytometry buffer in a total volume of 50-100 μL. Using an insulin syringe, cells were injected subcutaneously into the nipple of female NSG mice at the fourth abdominal fat pad. For limiting dilution assays, the specific number of cells injected into the mice were determined by flow cytometry and secondarily by manual counting with a hemocytometer.
(§6) Flow cytometry was performed with a 100 μm nozzle on a Flow Cytometry Aria II (BD Biosciences) with Diva software (BD Biosciences). Data analysis was performed using Flowjo software (Flowjo). For all experiments, side scatter and forward scatter profiles (area and width) were used to eliminate debris and cell doublets. Dead cells were eliminated by excluding 4′,6-diamidino-2-phenylindole (DAPI)-positive cells (Molecular Probes). For PDX tumor cells, they were gated for GFP positivity and then for RFP positivity. RFP percentage is the percentage of GFP positive cells that are also RFP positive. For each sample, we obtain the RFP fraction that is: the RFP % in the tumor divided by the baseline RFP % (see ‘Lentivirus infection’ section). RFP fraction for each sample is then normalized to the RFP fraction for the shRNA control sample which is set at 100% to obtain the ‘Normalized % RFP’.

PDX-T2 = assay: as above; format: in vivo; details: normalized to control shRNA
Protocol: as §3, §4, §5, §6

PDX-T3 = assay: as above; format: in vivo; details: normalized to control shRNA
Protocol: as §3, §4, §5, §6

PDX-T4 [3] = assay: as above; format: in vivo
Protocol: as §3, §4, §5, §6

PDX-T1 [4] = assay: RFP positive lung metastases in mice bearing PDX tumor xenografts; format: in vivo, NSG mice
Excerpt: (§7) Xenograft tumors and mice lungs were surgically resected after the mice were euthanized. A 3 to 4 mm section is cut from each tumor and saved in ice cold PBS for imaging. The mice lungs and tumors were imaged on a M205FA Fluorescence Stereo Microscope (Leica) and images were captured with a DFC310FX camera (Leica).
(§8) Percentage of mice with RFP positive lung metastases from mice bearing PDX-T1 (FIG. 1K) or PDX-T4 (FIG. 1L) tumor xenografts are shown. Number of mice with RFP positive lung metastases and total number of mice in each treatment group is shown as a fraction for each condition. PDX tumor cells were transduced with either control shRNA or CDK19 targeting shRNA (shCDK19-1, shCDK19-2) (For FIG. 1K, n=9, experiment performed three times; For […], n=3, experiment performed once). […] In FIG. 1N, bright field images (left column) show gross lung morphology, FITC images (middle column) identify metastatic tumor cells labeled with GFP, and Texas-Red images (right column) identify shRNA-transduced metastatic cells labeled with RFP. We also tested the effect of CDK19 knockdown on PDX-T4, an aggressive PDX obtained from the brain metastasis of a patient with a chemotherapy-resistant inflammatory breast cancer.

PDX-T4 [5] = assay: as above; format: in vivo, NSG mice
Excerpt: as §7, §8

PDX-T1 [6] = assay: Survival of mice engrafted with shRNA-transduced PDX-T1 xenografts; format: in vivo, NSG mice; details: mice with PDX-T1 tumors; vs control shRNA; sacrificed when tumor exceeded 17 mm
Excerpt: We explored the effect of CDK19 knockdown on the growth of pre-established organoids in vitro and in pre-established PDX tumors in vivo. This aimed to model the treatment of patients' pre-existing tumors. […] In FIGS. 4A and 4B, number of organoid colonies at Day 0 (FIG. 4A) and Day 16 (FIG. 4B) after initiating doxycycline treatment is shown, ****P<0.0001; ns is P>0.05 (mean s.d., n=6, experiment performed twice, P values determined by unpaired t-test). […] In FIGS. 4C and 4D, the growth of pre-established tumors in the doxycycline fed NSG mice and control NSG mice are shown for inducCDK19KD-PDX-T1, ****P<0.0001; ***P<0.001 (mean±s.d., n=5, experiment performed twice, P values determined by unpaired t-test) (FIG. 4C) and inducCDK19KD-PDX-T3, ****P<0.0001; ***P<0.001 (mean±s.d., n=5, experiment performed once, P values determined by unpaired t-test) (FIG. 4D). CDK19 shRNA induced tumors were ultimately 82% smaller in inducCDK19KD-PDX-T1 tumors and 38% smaller in inducCDK19KD-PDX-T3 tumors when compared to control tumors (FIGS. 4C and 4D). […] Shown in FIG. 4E are Kaplan-Meir survival curves for mice engrafted with PDX-T1 xenografts transduced with control shRNA (black line), shCDK19-1 (solid gray line) or shCDK19-2 (dashed gray line). Mice were followed with weekly measurements of tumor diameters. Mice were sacrificed when the longest diameter of their tumor exceeded 17 mm. […]

| Substance | Relative viability of HS578T cells (HS578T cells) | Relative viability of MDA-MB231 cells (MDA-MB231 cells) | Relative viability of MDA-MB468 cells (MDA-MB468 cells) | Relative viability of HMEC cells [1] | Formation of organoid colonies (PDX-T1 tumor cells) | Expression of CDK19 by RT-qPCR (CDK19; MDA-MB231) | Expression of CDK19 by RT-qPCR (CDK19; MDA-MB468) | Expression of CDK19 by RT-qPCR (CDK19; PDX-T1) | Percentage of RFP positive cells in tumors (PDX-T1 [2]) | Percentage of RFP positive cells in tumors (PDX-T2) | Percentage of RFP positive cells in tumors (PDX-T3) | Growth of the PDX (PDX-T4 [3]) | RFP positive lung metastases (PDX-T1 [4]) | RFP positive lung metastases (PDX-T4 [5]) | Overall survival (PDX-T1 [6]) |
| --- | --- | --- | --- | --- | --- | --- | --- | --- | --- | --- | --- | --- | --- | --- | --- |
| shCDK19-1: CDK19 targeting shRNA, sense strand 5′-GCGAGAATTGAAGTACCTTAA-3′ (SEQ ID NO: 1), lentiviral vector (sense GCGAGAATTGAAGTACCTTAA; listed as Homo sapiens) | significantly decreased the viability | significantly decreased the viability | significantly decreased the viability | neither of the two CDK19 knockdowns affected the viability | inhibited the formation of organoid colonies | effectively silences CDK19 | effectively silences CDK19 | effectively silences CDK19 | significant reduction in the percentage of RFP positive cells | significant reduction in the percentage of RFP positive cells | significant reduction in the percentage of RFP positive cells | inhibited both the growth of the PDX | eliminated the detection of any lung metastases | prevented transduced (RFP positive) TNBC cells from metastasizing to the lungs | significantly longer |
| shCDK19-2: CDK19 targeting shRNA, sense strand 5′-ACCAGCAAATATCCTAGTAAT-3′ (SEQ ID NO: 2), lentiviral vector (sense ACCAGCAAATATCCTAGTAAT; listed as Homo sapiens) | significantly decreased the viability | significantly decreased the viability | significantly decreased the viability | neither of the two CDK19 knockdowns affected the viability | inhibited the formation of organoid colonies | effectively silences CDK19 | effectively silences CDK19 | effectively silences CDK19 | significant reduction in the percentage of RFP positive cells | significant reduction in the percentage of RFP positive cells | significant reduction in the percentage of RFP positive cells | inhibited both the growth of the PDX | eliminated the detection of any lung metastases | prevented transduced (RFP positive) TNBC cells from metastasizing to the lungs | significantly longer |
